IC50 data for 61 compounds are collected here from patent publication US9029409B2, “Isoxazolines as therapeutic agents” (AbbVie Inc., priority 2011, dated 2015).

The test addresses T1, recombinant human MMP13 catalytic domain (CD) (Homo sapiens, UniProt P45452).
T1 construct: catalytic domain (CD) construct encompassing residues 20-274 (SWISS-PROT P45452); made in house
Put plainly: MMP-13 catalytic domain FRET enzyme assay. It is filed as biochemical. The conditions noted are these: recombinant human MMP-13 catalytic domain. How it is done: A recombinant human MMP13 catalytic domain (CD) construct encompassing residues 20-274 (SWISS-PROT P45452) was generated by synthetic gene methods and bacterial expression. MMP-13 activity assays were performed using the recombinant human MMP-13 CD at a 0.4 nM concentration and the fluorogenic substrate (QXL-520)-K-P-L-A˜Nva-Dap(5-FAM)-A-R-NH2 (Anaspec cat #60554-01, San Jose, Calif.) at a 0.25 μM concentration in assay buffer containing […], pH 7.5, 10 mM CaCl2, 150 mM NaCl, 0.05% Brij 35. The assay is based on the cleavage of this substrate by MMP-13, resulting in decrease of FRET between the donor-acceptor pair and subsequent fluorescence enhancement. The assays were carried out in 384-well plates (Greiner cat #781076, Germany) for 60 min at RT. After the incubation period, the reaction was quenched by the addition of 5 μL of 500 mM EDTA (100 mM final concentration) (Rankem, Cat #E0120, India) mixed well and the rate of substrate hydrolysis was determined by monitoring change in fluorescence at excitation and emission wavelengths of 485 nm and 535 nm respectively. Fluorescence was measured on a Victor V5 plate reader (Perkin Elmer, Turku, Finland). The test compounds used for assessing the potency of inhibition of MMP-13 activity were dissolved in DMSO (final DMSO concentration in the assay was 5%). Selected compounds were also screened against full length MMP13 (R&D Systems (Cat. No. 511-MM-010), Minneapolis, Minn.) at 2 nM concentration using the same fluorogenic substrate mentioned above. The enzyme was activated using 1 m Mp-aminophenylmercuric acetate—APMA (Cat #A-9563, Sigma, Germany).
Data analysis: The percent inhibition of the enzyme activity in presence of test compounds were calculated using the equation, percent (%) Inhibition=100−[(Fi/Fc)*100] where Fc is the fluorescence corresponding to initial enzyme activity and Fi is the fluorescence corresponding to the enzyme activity in presence of inhibitor. The IC50 values were calculated by fitting the dose-response data to a sigmoidal curve fitting equation using Graph Pad prism software (Version 5, La Jolla, Calif.).
MMP13 Catalytic Domain (CD) Potency of the Described Examples Determined Using Time Resolved Fluorescence Resonance Energy Transfer (FRET) Enzyme Assays: […]
By IC50 is commonly meant the concentration that inhibits the measured activity by half. Consider `COc1cccc(CNC(=O)c2cc(C3=NOC(C4CCN(C(C)=O)CC4)C3)nc(C)n2)c1` (stereo not shown), for which the IC50 was in the range of 10 to 100 nM.
Next, `COc1cc(CNC(=O)c2cc(C3=NOC(c4nn[nH]n4)C3)nc(C)n2)ccc1F` (stereo not shown): greater than 1000 nM.
The value for `COc1cc(CNC(=O)c2cc(C3=NOC([C@H]4CC[C@H](NS(N)(=O)=O)CC4)C3)nc(C)n2)ccc1F` (stereo partly shown) was less than 10 nM.
Regarding `COc1cc(CNC(=O)c2cc(C3=NOC(c4ccc(=O)n(C(C)C)c4)C3)nc(C)n2)ccc1F` (stereo not shown), the IC50 is less than 10 nM.
On to `CC(=O)NC[C@@H]1CO[C@@H]([C@@H]2CC(c3cc(C(=O)NCc4ccc(F)c(Cl)c4)nc(C)n3)=NO2)CO1`, for which the IC50 is less than 10 nM.
Next, `CCNC(=O)N1CCC(C2CC(c3cc(C(=O)NCc4ccc(F)c(OC)c4)nc(C)n3)=NO2)CC1` (stereo not shown) [drawing 1062]: 10 to 100 nM; `COc1cc(CNC(=O)c2cc(C3=NOC(c4ccc(-c5cnco5)nc4)C3)nc(C)n2)ccc1F` (stereo not shown): less than 10 nM; `COc1cc(CNC(=O)c2cc(C3=NOC(c4ccc(-c5nc(C)no5)nc4)C3)nc(C)n2)ccc1F` (stereo not shown): less than 10 nM.
Regarding `COc1cc(CNC(=O)c2cc(C3=NOC([C@H]4CC[C@H](NC(=O)CO)CC4)C3)nc(C)n2)ccc1F` (stereo partly shown), the IC50 was less than 10 nM.
For the compound `COc1cc(CNC(=O)c2cc(C3=NOC(c4ccc(=O)n(CC(=O)NC5CC5)c4)C3)nc(C)n2)ccc1F` (stereo not shown), the IC50 is less than 10 nM.
`CNC(=O)[C@@H]1CO[C@@H]([C@@H]2CC(c3cc(C(=O)NCc4ccc(F)c(OC)c4)nc(C)n3)=NO2)CO1`: the IC50 was less than 10 nM.
For the compound `COc1cc(CNC(=O)c2cc(C3=NOC(c4ccn(C5CC5)c(=O)c4)C3)nc(C)n2)ccc1F` (stereo not shown), the IC50 fell in the range of 10 to 100 nM.
The value for `CNC(=O)Cn1ccc(C2CC(c3cc(C(=O)NCc4ccc(F)c(OC)c4)nc(C)n3)=NO2)cc1=O` (stereo not shown) was 10 to 100 nM; that for `COc1ccc(C2CC(c3cc(C(=O)NCc4ccc(F)c(OC)c4)nc(C)n3)=NO2)nn1` (stereo not shown) was 10 to 100 nM; that for `CC(=O)N[C@H]1CC[C@H]([C@H]2CC(c3cc(C(=O)NCc4ccc(F)c(C)c4)nc(C)n3)=NO2)CC1` was 10 to 100 nM.
As to `COc1cc(CNC(=O)c2cc(C3=NOC(c4c[nH]cn4)C3)nc(C)n2)ccc1F` (stereo not shown), the IC50 was greater than 1000 nM.
On to `COc1ccc(CNC(=O)c2cc(C3=NOC(c4ccc(N(C)C)cc4)C3)nc(C)n2)cc1` (stereo not shown), for which the IC50 lay in the range of 100 to 1000 nM.
Consider `COc1cc(CNC(=O)c2cc(C3=NOC([C@H]4CC[C@H](NS(C)(=O)=O)CC4)C3)nc(C)n2)ccc1F` (stereo partly shown), for which the IC50 was less than 10 nM.
For the compound `Cc1nc(C(=O)NCc2ccc(F)c(C)c2)cc(C2=NOC(c3ccccn3)C2)n1` (stereo not shown), the IC50 lay in the range of 10 to 100 nM.
On to `CC(=O)N[C@H]1CC[C@H](C2CC(c3cc(C(=O)NCc4ccc(F)c(F)c4)nc(C)n3)=NO2)CC1` (stereo partly shown), for which the IC50 lay within 10 to 100 nM.
In the case of `COC[C@@H]1CO[C@@H]([C@H]2CC(c3cc(C(=O)NCc4ccc(F)c(OC)c4)nc(C)n3)=NO2)CO1`, the IC50 was greater than 1000 nM.
For the compound `Cc1nc(C(=O)NCc2ccc(F)c(Cl)c2)cc(C2=NO[C@@H]([C@H]3CO[C@H](CO)CO3)C2)n1` [drawing 902], the IC50 lay within 100 to 1000 nM.
`Cc1nc(C(=O)NCc2ccc3oc(C)nc3c2)cc(C2=NO[C@@H]([C@H]3CO[C@H](CO)CO3)C2)n1`: the IC50 is greater than 1000 nM.
Regarding `COc1cc(CNC(=O)c2cc(C3=NOC(c4cnn(CCO)c4)C3)nc(C)n2)ccc1F` (stereo not shown), the IC50 was greater than 1000 nM.
For the compound `CC(=O)N[C@H]1CC[C@H](C2CC(c3cc(C(=O)NCc4ccc(F)c(Cl)c4)nc(C)n3)=NO2)CC1` (stereo partly shown), the IC50 was less than 10 nM.
Consider `COc1cc(CNC(=O)c2cc(C3=NOC(c4cnccn4)C3)nc(C)n2)ccc1F` (stereo not shown), for which the IC50 is 10 to 100 nM.
With `COc1ccc(CNC(=O)c2cc(C3=NO[C@@H]([C@H]4CO[C@H](CO)CO4)C3)nc(C)n2)cc1`, the IC50 was greater than 1000 nM.
Next, `COc1cc(CNC(=O)c2cc(C3=NOC([C@H]4CC[C@H](C(N)=O)CC4)C3)nc(C)n2)ccc1F` (stereo partly shown): less than 10 nM.
Consider `COc1cc(CNC(=O)c2cc(C3=NOC(C4CCN(C(=O)N(C)C)CC4)C3)nc(C)n2)ccc1F` (stereo not shown) [drawing 876], for which the IC50 is less than 10 nM.
Consider `COc1cc(CNC(=O)c2cc(C3=NOC(c4ccc(CO)cc4)C3)nc(C)n2)ccc1F` (stereo not shown), for which the IC50 is less than 10 nM.
For `Cc1nc(C(=O)NCc2ccc3c(c2)OCCO3)cc(C2=NO[C@@H]([C@H]3CO[C@H](CO)CO3)C2)n1`, the IC50 is greater than 1000 nM.
Regarding `CC(=O)N[C@H]1CC[C@H](C2CC(c3cc(C(=O)NCc4ccc(F)cc4)nc(C)n3)=NO2)CC1` (stereo partly shown), the concentration for half-maximal inhibition (IC50) was in the range of 10 to 100 nM.
For `COc1cc(CNC(=O)c2cc(C3=NO[C@H](c4ccc(=O)n(C)c4)C3)nc(C)n2)ccc1F`, the IC50 was less than 10 nM.
As to `COc1ccc(CNC(=O)c2cc(C3=NOC(c4ccc(N5CCOCC5)cc4)C3)nc(C)n2)cc1` (stereo not shown), the IC50 was 10 to 100 nM.
Take `COc1cc(CNC(=O)c2cc(C3=NOC(C4CCN(C(C)=O)CC4)C3)nc(C)n2)ccc1F` (stereo not shown): the IC50 fell in the range of 10 to 100 nM.
Regarding `COc1cc(CNC(=O)c2cc(C3=NOC(C4CCN(C(=O)CS(C)(=O)=O)CC4)C3)nc(C)n2)ccc1F` (stereo not shown), the IC50 lay in the range of 10 to 100 nM.
As for `COc1ccc(C2CC(c3ccnc(C(=O)NCc4cccc(OC)c4)c3)=NO2)cc1` (stereo not shown), the IC50 was 10 to 100 nM.
For `COC[C@@H]1CO[C@@H]([C@@H]2CC(c3cc(C(=O)NCc4ccc(F)c(OC)c4)nc(C)n3)=NO2)CO1`, the IC50 was 10 to 100 nM.
As to `COc1cc(CNC(=O)c2cc(C3=NO[C@H]([C@H]4CO[C@H](CNC(C)=O)CO4)C3)nc(C)n2)ccc1F`, the IC50 is less than 10 nM.
Take `COc1cc(CNC(=O)c2cc(C3=NOC(c4ccc(N(C)C)nn4)C3)nc(C)n2)ccc1F` (stereo not shown): the IC50 is greater than 1000 nM.
The value for `CC(=O)N1CCC(C2CC(c3cc(C(=O)NCc4ccc(F)cc4)nc(C)n3)=NO2)CC1` (stereo not shown) was 10 to 100 nM; that for `Cc1nc(C(=O)NCc2ccc(F)c(F)c2)cc(C2=NOC(C3CCN(S(C)(=O)=O)CC3)C2)n1` (stereo not shown) was 10 to 100 nM.
The value for `COc1cc(CNC(=O)c2cc(C3=NOC(c4cccc(CN5CCOCC5)c4)C3)nc(C)n2)ccc1F` (stereo not shown) was less than 10 nM; that for `COc1cc(CNC(=O)c2cc(C3=NOC(C4CCN(C(=O)CO)CC4)C3)nc(C)n2)ccc1F` (stereo not shown) was 10 to 100 nM; that for `COc1cc(CNC(=O)c2cc(C3=NO[C@H]([C@H]4CO[C@H](CNC(=O)C(C)(C)O)CO4)C3)nc(C)n2)ccc1F` was 10 to 100 nM.
Consider `Cc1nc(C(=O)NCc2ccc3oc(C)nc3c2)cc(C2=NO[C@H]([C@H]3CO[C@H](CO)CO3)C2)n1`, for which the IC50 was in the range of 10 to 100 nM.
As to `COc1cc(CNC(=O)c2cc(C3=NOC(C4CCN(S(=O)(=O)C(C)C)CC4)C3)nc(C)n2)ccc1F` (stereo not shown), the IC50 was less than 10 nM.
The value for `COc1cccc(CNC(=O)c2cc(C3=NOC(c4ccccn4)C3)nc(C)n2)c1` (stereo not shown) was 10 to 100 nM; that for `Cc1nc(C(=O)NCc2ccc(F)c(F)c2)cc(C2=NOC(C3CCN(C(=O)CO)CC3)C2)n1` (stereo not shown) was 10 to 100 nM.
Turning to `COc1cc(CNC(=O)c2cc(C3=NOC(C4CCN(C(=O)CNS(C)(=O)=O)CC4)C3)nc(C)n2)ccc1F` (stereo not shown), the IC50 was in the range of 10 to 100 nM.
As to `CC(=O)N[C@H]1CC[C@H](C2CC(c3cc(C(=O)NCc4ccnc5ccccc45)nc(C)n3)=NO2)CC1` (stereo partly shown), the IC50 lay within 100 to 1000 nM.
For `COc1cc(CNC(=O)c2cc(C3=NOC([C@H]4CC[C@H](C(=O)NCCO)CC4)C3)nc(C)n2)ccc1F` (stereo partly shown), the IC50 is less than 10 nM.
Turning to `CC(=O)N[C@H]1CC[C@H](C2CC(c3cc(C(=O)NCc4ccc(F)c(C)c4)nc(C)n3)=NO2)CC1` (stereo partly shown), the IC50 is less than 10 nM.
Consider `COc1cc(CNC(=O)c2cc(C3=NOC(C(=O)NCCO)C3)nc(C)n2)ccc1F` (stereo not shown), for which the IC50 lay in the range of 100 to 1000 nM.
Take `COc1cc(CNC(=O)c2cc(C3=NOC(c4ccc(CO)nc4)C3)nc(C)n2)ccc1F` (stereo not shown): the IC50 lay in the range of 10 to 100 nM.
Take `COc1ccc(CNC(=O)c2cc(C3=NOC(C4CCCCC4)C3)nc(C)n2)cc1` (stereo not shown): the IC50 was 10 to 100 nM.
As for `CNC(=O)NCC(=O)N1CCC(C2CC(c3cc(C(=O)NCc4ccc(F)c(OC)c4)nc(C)n3)=NO2)CC1` (stereo not shown), the IC50 lay within 10 to 100 nM.
In the case of `Cc1cccc(CNC(=O)c2cc(C3=NO[C@H]([C@H]4CO[C@H](CO)CO4)C3)nc(C)n2)c1`, the IC50 was greater than 1000 nM.
For the compound `Cc1nc(C(=O)NCc2ccc(F)c(F)c2)cc(C2=NOC(c3ccc(C#N)nn3)C2)n1` (stereo not shown), the IC50 lay in the range of 10 to 100 nM.
As to `COc1cc(CNC(=O)c2cc(C3=NO[C@H](c4ccc(=O)n(C5CC5)c4)C3)nc(C)n2)ccc1F`, the IC50 was less than 10 nM.
Take `COc1cc(CNC(=O)c2cc(C3=NOC([C@H]4CC[C@H](NC(=O)NC(CO)CO)CC4)C3)nc(C)n2)ccc1F` (stereo partly shown): the IC50 is 10 to 100 nM.
